Measured values as given in publication PMC10786036 (2023).

How the values were obtained:
[1] = tested on: c-MYC (DNA, G4) TGAGGGTGGGTAGGGTGGGTAA; test: fluorescence lifetime; details: 100 mM LiCl; 10 mM Tris-HCl pH 7.4; lifetime 1.3 ns lower than in K+
[2] = tested on: TRF2 (RNA, G4) CGGGAGGGCGGGGAGGGC; test: fluorescence lifetime; details: 100 mM KCl; 10 mM Tris-HCl pH 7.4; 2 µM TOR-G4; lifetime rises with G4 RNA in totRNA

binding [1]: yes
binding [2]: yes
SMILES: COc1ccc2c(c1)N(C)C(=Cc1cc(/C=C/c3ccc(N(C)C)cc3)[n+](C)c3ccccc13)S2
